Read-outs that look alike come from different tables or passages of the source.
What was measured:
[1] = test system: tomato plants; assay: Root mass of tomato plants in the soil infectivity assay; settings: 45 μM in soil, 8 weeks
Protocol: For the infectivity assays, 90 grams of soil (1:1 sand:loam mix) was added to each cell of several 6-cell plastic garden packs. The soil was drenched with 18 mL of deionized water containing dissolved test compound or DMSO alone. 2,500 infective J2 juveniles were then added to the soil in 2 mL of deionized water, for a total water volume of 20 mL. […] The DMSO concentration varied from 0.1% to 0.8% (v/v) depending on the stock concentration of the test compound. The highest DMSO concentration was used as the DMSO control. The J2s were incubated in the soil and chemical for 24 hours, after which two- to three-week old tomato seedlings were transplanted into the soil (one plant per cell). Two replicates were performed for each chemical treatment, and four replicates were done for the DMSO controls. The whole experiment was replicated twice, in two different batches on two different days, for a total of four replicates for each test compound treatment, and eight replicates for the DMSO controls. Inoculated plants were grown for 8 weeks in a greenhouse, as described^47, under long-day conditions (16-h photoperiod) with 26/18° C. day/night temperatures. After 8 weeks, the plants were destructively harvested. The tops were removed and discarded, and roots were gently washed with water to remove adhering soil. Eggs were extracted by placing rinsed roots in 0.6% sodium hypochlorite and agitating at 300 rpm for 3 min. Roots were then rinsed over nested 250—and 25.4-μm sieves, with eggs collected from the latter and suspended in water. Roots were dried in a 65° C. oven for at least 24 hours, after which dry roots were weighed. The number of eggs from each plant root was counted on a dissection microscope using a haemocytometer, and the number of eggs per milligram of root was calculated by dividing the total egg number by the mass of the dried root material. An average was taken across the replicates performed on the same day, and then normalized to the DMSO control average. […] An average percent effectiveness value was then calculated across the two different batches carried out on different days.

[2] = test system: C. elegans; assay: C. elegans dose-response (viability, minimum lethal concentration); format: in vivo, Caenorhabditis elegans
Protocol: Forty microliters of an HB101 E. coli bacterial suspension in liquid NGM (nematode growth media—see ref. 42 for the recipe) was added to each well of a 96-well flat-bottom culture plate, after which approximately 25 synchronized L1 worms, in 10 μl of M9 buffer (see ref. 43 for the recipe), were added to each well. The synchronized L1 worms were obtained from an embryo preparation performed the previous day (see ref. 43 for the protocol). For the L1 assays, 0.5 μl of test compound solution (or DMSO alone) was immediately added to the wells using a multichannel pipette; the final DMSO concentration is 1% (v/v). The worms were incubated for 3 days at 20° C. and the number of viable animals was counted.
At least three biological replicates were performed for each dose-response assay. For each biological replicate, two technical replicates were performed and the numbers of viable animals for each technical replicate were combined (i.e. ˜ 50 worms assayed per concentration). The number of viable worms at each concentration was divided by the corresponding DMSO control value to give the “relative viability” for each concentration. The “relative viability” values were then averaged across the biological replicates. Minimum lethal concentration was defined as the lowest concentration at which at least 20% of worms die.

[3] = test system: M. incognita; assay: Meloidogyne incognita infectivity assay (soil, tomato roots); format: in vivo; settings: 45 μM in soil, 8 weeks, eggs per mg root relative to DMSO control; for pest or weed control at 45 µM: Meloidogyne incognita, 1344 h, read-out: % effectiveness at inhibiting reproduction of M. incognita
Text: An M. incognita population originally collected from grape (Vitis vinifera) in Parlier, California, was used for all experiments, and they were maintained on tomato plants (Solanum lycopersicum ‘Rutgers’) as previously described^47. Infective J2 juveniles were collected as described in ref. 47.

[4] = test system: M. chitwoodi; assay: Meloidogyne chitwoodi infectivity assay (soil, tomato roots); format: in vivo; settings: 45 μM in soil, 8 weeks, egg counts relative to DMSO control
Protocol: M. chitwoodi race 1 (the strain commonly found in the pacific northwest of the United States) was used for all experiments, and was maintained on tomato plants (Solanum lycopersicum ‘Rutgers’) as previously described^47. The M. chitwoodi infectivity assays were performed identically to the M. incognita infectivity assays (see above), with the exception that egg counts were not normalized to the mass of the roots. Four technical replicates were performed in a single batch.

[5] = test system: HepG2 cells; assay: HepG2 cell proliferation assay; format: cell-based, human
Protocol: HepG2 cells, which are liver-derived, were counted using a haemocytometer, diluted, and seeded in […] to a final density of 5×10^4 cells/mL in 100 uL of RPMI-1640 medium supplemented with 10% heat inactivated fetal bovine serum (Gibco) and 1.2× Antibiotic-Antimycotic (Gibco). Cells were incubated at 37° C. with 5% CO2 for 24 hours. Subsequently, a 2-fold dilution series of test compound was added to cells at a final volume of 200 uL and incubated at 37° C. with 5% CO2 for 72 hours. After 72 hours, Alamar Blue (Invitrogen) was added to the Hep G2 cells at a final concentration of 0.5× and plates were incubated at 37° C. for 4 hours. Fluorescence was measured at Ex560 nm/Em590 nm and corrected for background from the medium. All assays were performed in technical triplicates and in at least two biological replicates. The IC50 value was defined as the concentration that inhibits cell proliferation by 50% of the untreated control cells.

[6] = test system: M. chitwoodi J2 larvae; assay: Meloidogyne chitwoodi in vitro larval mobility assay; format: in vivo; settings: 2 days, average of three replicates; for pest or weed control at 45 µM: Meloidogyne chitwoodi, 48 h, read-out: % Immobile
Protocol: M. chitwoodi race 1 (the strain commonly found in the pacific northwest of the United States) was used for all experiments, and was maintained on tomato plants (Solanum lycopersicum ‘Rutgers’) as previously described^47. The microwell dose-response experiments were carried out similarly to previously described protocols^44,46. […] The chemicals were tested at 45 μM, and the final concentration of DMSO in each well was 0.5% (v/v). The wells were covered with a plastic adhesive strip, and the lids of the plates were sealed with parafilm. The plates were incubated at 25° C. for 2 days. The percent of worms that were immobile (% immobile) was quantified by counting the number of immobile worms after 2 days of incubation, dividing the number of immobile worms by the total number of worms in the well, and then multiplying by 100. […] The average % immobile value was calculated across the three replicates.

[7] = test system: Zebrafish; assay: Zebrafish dose-response experiments; format: in vivo, Danio rerio; settings: for Zebrafish LC100: lowest concentration at which all of the fish are dead, 45, 15, 5 μM tested
Protocol: (§1) Zebrafish were maintained and handled under the guidance and approval of the Canadian Council on Animal Care and the Hospital for Sick Children Laboratory Animal Services. Dose-response assays were performed using zebrafish (Danio rerio) at 3 days post-fertilization. Three wild-type (TLAB) embryos were analyzed in each well of a 24-well plate containing 1 mL of E3 medium (5 mM NaCl, 0.17 mM KCl, 0.33 mM CaCl2, 0.33 mM MgSO4). Test compounds were added to each well to reach final concentrations of 45 μM, 15 μM, and 5 μM (0.5% v/v DMSO), as well as a DMSO control well. The viability of the fish was assessed after 3 days of test compound exposure using a Zeiss standard dissection microscope.

[8] = Zebrafish dose-response experiments; format: in vivo, Danio rerio; settings: TLAB (wild-type), zebrafish (Danio rerio), in vivo; bound inferred from the tested concentrations, 3 days exposure
Protocol: as §1

[9] = test system: M. incognita J2 larvae; assay: Meloidogyne incognita in vitro larval mobility assay; format: in vivo; settings: 45 μM, 4 days; for Replicate 1 z-score / Replicate 2 z-score: z-score vs untreated DMSO wells; for pest or weed control at 45 µM: Meloidogyne incognita, 96 h
Procedure, shortened: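 Infective J2 juveniles of M. incognita Race 1, about 35 per well, were exposed to compound at 45 μM in deionized water with 0.5% DMSO for 4 days at 25° C without shaking. Immobile worms were counted as % of total, averaged over two replicates. A z-score against DMSO control wells was also computed, with z > 1.645 in both replicates marking a hit.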

[10] = test system: M. hapla eggs; assay: Meloidogyne hapla in vitro egg hatch assay; format: in vivo; settings: 45 μM; for Number of Hatched Eggs: 8 days at room temperature, about 90 eggs per well, tested once; for Number of Hatched Eggs z-score: 8 days, z-score vs 8 untreated DMSO wells
Procedure, shortened: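 About 90 eggs per well, freed from carrot-root egg masses with 10% bleach for 4 min, were exposed in deionized water to 0.5 μL compound or DMSO. Hatched eggs were counted after 8 days at room temperature without shaking in humid conditions. Each treatment was tested once, with z-scores calculated from 8 untreated DMSO control wells.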

[11] = Caenorhabditis elegans, 72 h, L1 worms, 3 days at 20° C., lowest concentration at which at least 20% of worms die, read-out: Minimum Lethal Concentration
[12] = Caenorhabditis elegans, 72 h, L1 worms, 3 days at 20° C., same values in ppm, read-out: Minimum Lethal Concentration (ppm)
[13] = average of the two replicates, read-out: Average % Immobile
[14] = replicate 1, read-out: Replicate 1 % Immobile
[15] = replicate 2, read-out: Replicate 2 % Immobile
[16] = 72 hours, Alamar Blue, cell proliferation

| Structure (SMILES) | Normalized root mass (relative to DMSO control) [1] | minimal effective concentration [2, 11] [µM] | minimal effective concentration [2, 12] [µg/mL] | pest or weed control at 45 µM [3] [%] | % effectiveness at inhibiting reproduction of M. chitwoodi [4] [%] | pest or weed control at 45 µM [6] [%] | Zebrafish LC100 ([7]; 3 days exposure) [µM] | Replicate 1 z-score ([9]; replicate 1) | Replicate 2 z-score ([9]; replicate 2) | pest or weed control at 45 µM [9, 13] [%] | pest or weed control at 45 µM [9, 14] [%] | pest or weed control at 45 µM [9, 15] [%] | Number of Hatched Eggs [10] | Number of Hatched Eggs z-score [10] | also measured |
| --- | --- | --- | --- | --- | --- | --- | --- | --- | --- | --- | --- | --- | --- | --- | --- |
| CCc1ccc(-c2cn3cc(C)sc3n2)cc1 [I-10] | 1.30 | 6.25 | 1.5 | 18.5 | 63.7 |  |  |  |  |  |  |  |  |  |  |
| Clc1ccc(-c2cn3ccsc3n2)nc1 [I-46] | 1.56 | 100 | 23.6 | 37.7 |  | 56.4 | >45 | [10.33] | [12.18] | ≥ 75 | 73.2 | 77.1 |  |  | IC50 ([5]; Homo sapiens, HepG2, 72 hours, Alamar Blue, cell proliferation): > 100 µM; HepG2 IC50 (ppm) ([5]; approximate ppm equivalent of 100 μM): > 23 ppm; lethality to zebrafish ([7]; concentrations up to 45 μM, the highest concentration tested): non-lethal; LC50 at 3 days [8]: > 45 µM |
| c1ccc(-c2noc(-c3cccs3)n2)cc1 [tioxazafen, reference compound] | 1.09 |  |  |  |  |  | 15 | [14.82] | [21.99] |  |  |  | 1 | [4.30] | HepG2 IC50 [5, 16]: relatively inactive; IC50 [5, 16]: > 100 µM; minimal effective concentration ([2]; L1 worms, 3 days at 20° C., lowest concentration at which at least 20% of worms die, read-out: Minimum Lethal Concentration): 3.125 µM; Minimum Lethal Concentration (ppm) ([2]; L1 worms, 3 days at 20° C., same values in ppm): 0.7 ppm; times more potent at killing C. elegans than compound I-46 ([2]; tioxazafen versus compound I-46, minimum lethal concentration): 32; % effectiveness at inhibiting reproduction of M. incognita [3]: 43.7%; % Immobile ([6]; 45 μM): 42.7%; LC50 ([7]; bound inferred from the tested concentrations, 3 days exposure): ≤ 15 µM; times more potent at killing fish than compound I-46 ([7]; tioxazafen versus compound I-46, zebrafish): at least 3; Average % Immobile ([9]; average of the two replicates): 100.00%; Replicate 1 % Immobile ([9]; replicate 1): 100.00%; Replicate 2 % Immobile ([9]; replicate 2): 100.00% |
| Cc1c(-c2ccc(F)cc2)nc2sccn12 [I-13] | 1.12 | > 100 | > 23.2 | 0 |  | 32.4 |  | [2.58] | [2.14] | 28.4 | 35.3 | 21.6 |  |  |  |
| CCc1ccc(-c2cn3ccsc3n2)cc1 [I-7] |  | 50 | 11.4 |  | 59.3 | > 75 |  | [10.58] | [3.55] | 51.9 | 74.5 | 29.4 | 1 | [4.30] |  |
| Cc1c(-c2ccc(Br)cc2)nc2sccn12 [I-33] | 1.45 | 12.5 | 3.7 | 7.9 |  | 58.1 |  | [1.78] | [4.16] | 32.1 | 31.4 | 32.8 |  |  |  |

— patent US20240109914A1, “IMIDAZOTHIAZOLE COMPOUNDS AND ANALOGS THEREOF AND METHODS FOR TREATING NEMATODE INFECTIONS IN PLANTS” (The Governing Council of The University of Toronto, priority 2021, published 2024)
